Source: patent publication US11667651B2, “Aminopyridine derivatives as phosphatidylinositol phosphate kinase inhibitors” (HiberCell, Inc., priority 2017, dated 2023)

Columns and labels:
Type in all cases: biochemical
[1] = target: T1, PIP4K2A (Homo sapiens, UniProt P48426); experiment: ADP-glo kinase assay PIP4K 2A (Table 3); design: made in house; host or cells: E. coli; details: compounds listed under IC50 bins
T1 sequence (P48426 1-406): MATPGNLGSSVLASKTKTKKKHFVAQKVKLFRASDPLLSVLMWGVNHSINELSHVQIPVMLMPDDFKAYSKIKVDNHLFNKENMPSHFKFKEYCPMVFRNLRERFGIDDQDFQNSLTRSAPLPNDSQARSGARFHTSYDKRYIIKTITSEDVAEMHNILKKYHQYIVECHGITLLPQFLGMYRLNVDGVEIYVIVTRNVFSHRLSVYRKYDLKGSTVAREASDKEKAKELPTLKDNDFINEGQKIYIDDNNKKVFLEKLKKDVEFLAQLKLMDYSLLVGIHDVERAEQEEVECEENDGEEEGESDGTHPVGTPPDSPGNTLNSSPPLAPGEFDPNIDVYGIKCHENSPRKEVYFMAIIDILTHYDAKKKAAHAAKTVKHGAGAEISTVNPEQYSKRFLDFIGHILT
Summary of the method: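 ADP-Glo luminescence detected ADP after 1 h RT reaction started by ATP (60 μM solution) on full-length PIP4K2A (4 nM in mix) and PI(5)P diC8 (100 μM in mix), preceded by 15 min enzyme-compound preincubation in MOPS pH 7.2/25 mM MgCl2. Percent inhibition versus DMSO over 10 concentrations fitted for IC50.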

[2] = target: T1, PIP4K2A; experiment: Kinase Assay PIP4K2 A (Table 2); design: 4 nM PIP4K2A (full length protein, SignalChem); purchased SignalChem; details: compounds listed under IC50 bins
Summary of the method: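 ADP-Glo luminescent read-out after 1 h room-temperature kinase reaction, started with 60 μM ATP solution following 15 min compound pre-incubation. Enzyme/substrate mix: 4 nM full-length PIP4K2A plus 100 μM PI(5)P diC8; buffer MOPS pH 7.2 with 25 mM MgCl2 and Tween 20. IC50 from 10-point, 3-fold titrations normalized to DMSO.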

[3] = target: T2, PIP4K2B (Homo sapiens, UniProt P78356); experiment: Trans-FI P kinase assay PIP4K2B (Table 4); details: compounds listed under IC50 bins; read-out: Trans-FI P kinase assays: PIP4K2B IC50
T2 construct: made in house; host or cells: E. coli
T2 sequence (P78356 1-416): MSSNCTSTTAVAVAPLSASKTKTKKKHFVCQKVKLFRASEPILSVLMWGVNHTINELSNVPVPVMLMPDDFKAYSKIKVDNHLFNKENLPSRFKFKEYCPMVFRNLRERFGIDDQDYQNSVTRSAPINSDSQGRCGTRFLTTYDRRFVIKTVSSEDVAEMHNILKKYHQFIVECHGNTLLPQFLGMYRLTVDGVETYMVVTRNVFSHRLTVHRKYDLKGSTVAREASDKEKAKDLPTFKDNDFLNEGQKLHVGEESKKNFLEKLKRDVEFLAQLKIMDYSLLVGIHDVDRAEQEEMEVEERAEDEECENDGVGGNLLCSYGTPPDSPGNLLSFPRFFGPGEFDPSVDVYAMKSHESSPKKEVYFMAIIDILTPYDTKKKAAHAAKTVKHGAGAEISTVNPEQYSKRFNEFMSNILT
Summary of the method: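 Transcreener FI detection (Ex 584/Em 623) of GDP, converted via calibration curve, gives IC50 from residual activity versus log concentration (highest 4.8 μM). Reaction: 80 μM PI5P plus DOPE carrier, 100 μM GTP, 5 nM GST-tagged enzyme, pH 7.3 HEPES with MgCl2 and 5% DMSO, 2 h after 1 h enzyme-compound preincubation at 27° C.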

Row | Structure (SMILES) | IC50 [1] [nM] | IC50 [2] [nM] | IC50 [3] [nM]
1 | CN(C)C(=O)c1ccc(-c2ccc(Nc3cncc(NC(=O)c4cccc5[nH]ccc45)c3)nc2)cc1 [Example 143, N-(5-((5-(4-(dimethylcarbamoyl)phenyl)pyridin-2-yl)amino)pyridin-3-yl)-1H-indole-4-carboxamide] | 10 to 100 | 1 to 10 | 10 to 100
2 | CNC(=O)c1cccc2ncc(Nc3ccc(-c4ccc(N5CCCC5=O)cc4)cn3)cc12 [Example 146, N-methyl-3-((5-(4-(2-oxopyrrolidin-1-yl)phenyl)pyridin-2-yl)amino)quinoline-5-carboxamide] | 10 to 100 | 100 to 1000 | 10 to 100
3 | CN(C)C(=O)c1cccc2ncc(Nc3ccc(-c4ccc(N5CCCC5=O)cc4)cn3)cc12 [Example 147, N,N-dimethyl-3-((5-(4-(2-oxopyrrolidin-1-yl)phenyl)pyridin-2-yl)amino)quinoline-5-carboxamide] | 100 to 1000 | 100 to 1000 | > 1000
4 | O=C(c1cccc2ncc(Nc3ccc(-c4ccc(N5CCCC5=O)cc4)cn3)cc12)N1CCCC1 [Example 148, 1-(4-(6-((5-(pyrrolidine-1-carbonyl)quinolin-3-yl)amino)pyridin-3-yl)phenyl)pyrrolidin-2-one] | > 1000 | 100 to 1000 | > 1000
5 | O=C(c1cccc2ncc(Nc3ccc(-c4ccc(N5CCCC5=O)cc4)cn3)cc12)N1CCC(O)C1 (stereo not drawn) [Example 149, 1-(4-(6-((5-(3-hydroxypyrrolidine-1-carbonyl)quinolin-3-yl)amino)pyridin-3-yl)phenyl)pyrrolidin-2-one] | > 1000 | 100 to 1000 | > 1000
6 | CC(C)C(=O)N1CCOc2ncc(Nc3ccc(-c4ccc(N5CCCC5=O)cc4)cn3)cc21 [Example 152, 1-(4-(6-((1-isobutyryl-2,3-dihydro-1H-pyrido[2,3-b][1,4]oxazin-7-yl)amino)pyridin-3-yl)phenyl)pyrrolidin-2-one] | 10 to 100 | 1 to 10 | 10 to 100
7 | CC(C)S(=O)(=O)N1CCOc2ncc(Nc3ccc(-c4ccc(N5CCCC5=O)cc4)cn3)cc21 [Example 153, 1-(4-(6-((1-(isopropylsulfonyl)-2,3-dihydro-1H-pyrido[2,3-b][1,4]oxazin-7-yl)amino)pyridin-3-yl)phenyl)pyrrolidin-2-one] | 100 to 1000 | 10 to 100 | 10 to 100
8 | O=C1CCCN1c1ccc(-c2ccc(Nc3cnc4c(c3)N(S(=O)(=O)C3CC3)CCO4)nc2)cc1 [Example 154, 1-(4-(6-((1-(cyclopropylsulfonyl)-2,3-dihydro-1H-pyrido[2,3-b][1,4]oxazin-7-yl)amino)pyridin-3-yl)phenyl)pyrrolidin-2-one] | 10 to 100 | 10 to 100 | 10 to 100
9 | CS(=O)(=O)N1CCOc2ncc(Nc3ccc(-c4ccc(N5CCCC5=O)cc4)cn3)cc21 [Example 156, 1-(4-(6-((1-(methylsulfonyl)-2,3-dihydro-1H-pyrido[2,3-b][1,4]oxazin-7-yl)amino)pyridin-3-yl)phenyl)pyrrolidin-2-one] | 10 to 100 | 1 to 10 | 10 to 100
10 | CN(c1cncc(Nc2ccc(-c3ccc(N4CCCC4=O)cc3)cn2)c1)S(C)(=O)=O [Example 157, N-methyl-N-(5-((5-(4-(2-oxopyrrolidin-1-yl)phenyl)pyridin-2-yl)amino)pyridin-3-yl)methanesulfonamide] | 10 to 100 | 10 to 100 | 10 to 100

Other lines, results leading:

Row | IC50 [1] [nM] | IC50 [2] [nM] | IC50 [3] [nM] | Structure (SMILES)
11 | 10 to 100 | 10 to 100 | 10 to 100 | CN(C)C(=O)c1ccc(-c2ccc(Nc3cncc(NC(=O)c4ccc5c(c4)B(O)OC5)c3)nc2)cc1 [Example 133, N-(5-((5-(4-(dimethylcarbamoyl)phenyl)pyridin-2-yl)amino)pyridin-3-yl)-1-hydroxy-1,3-dihydrobenzo[c][1,2]oxaborole-6-carboxamide]
12 | 10 to 100 | 10 to 100 | 10 to 100 | CN(C)C(=O)c1ccc(-c2ccc(Nc3cncc(N4CCC(Cc5cccc(N)c5)C4=O)c3)nc2)cc1 (stereo not drawn) [Example 134, 4-(6-((5-(3-(3-aminobenzyl)-2-oxopyrrolidin-1-yl)pyridin-3-yl)amino)pyridin-3-yl)-N,N-dimethylbenzamide]
13 | 10 to 100 | 10 to 100 | 10 to 100 | CN(C)C(=O)c1ccc(-c2ccc(Nc3cncc(NC(=O)c4ccc5cc[nH]c5c4)c3)nc2)cc1 [Example 135, N-(5-((5-(4-(dimethylcarbamoyl)phenyl)pyridin-2-yl)amino)pyridin-3-yl)-1H-indole-6-carboxamide]
14 | 10 to 100 | 10 to 100 | 10 to 100 | CN(C)C(=O)c1ccc(-c2ccc(Nc3cncc(NC(=O)c4ccc5ncoc5c4)c3)nc2)cc1 [Example 136, N-(5-((5-(4-(dimethylcarbamoyl)phenyl)pyridin-2-yl)amino)pyridin-3-yl)benzo[d]oxazole-6-carboxamide]
15 | 10 to 100 | 10 to 100 | 10 to 100 | CN(C)C(=O)c1ccc(-c2ccc(Nc3cncc(NC(=O)CCc4ccccc4)c3)nc2)cc1 [Example 137, N,N-dimethyl-4-(6-((5-(3-phenylpropanamido)pyridin-3-yl)amino)pyridin-3-yl)benzamide]
16 | 1 to 10 | 1 to 10 | 10 to 100 | CN(C)C(=O)c1ccc(-c2ccc(Nc3cncc(NC(=O)C4CC4c4ccccc4)c3)nc2)cc1 (stereo not drawn) [Example 138, N,N-dimethyl-4-(6-((5-(2-phenylcyclopropane-1-carboxamido)pyridin-3-yl)amino)pyridin-3-yl)benzamide]
17 | 10 to 100 | 10 to 100 | 10 to 100 | CN(C)C(=O)c1ccc(-c2ccc(Nc3cncc(NC(=O)c4ccc(F)cc4)c3)nc2)cc1 [Example 139, 4-(6-((5-(4-fluorobenzamido)pyridin-3-yl)amino)pyridin-3-yl)-N,N-dimethylbenzamide]
18 | 10 to 100 | 10 to 100 | 10 to 100 | CN(C)C(=O)c1ccc(-c2ccc(Nc3cncc(NC(=O)c4cccc(F)c4)c3)nc2)cc1 [Example 140, 4-(6-((5-(3-fluorobenzamido)pyridin-3-yl)amino)pyridin-3-yl)-N,N-dimethylbenzamide]
19 | 10 to 100 | 1 to 10 | 10 to 100 | COc1cccc(C(=O)Nc2cncc(Nc3ccc(-c4ccc(C(=O)N(C)C)cc4)cn3)c2)c1 [Example 141, 4-(6-((5-(3-methoxybenzamido)pyridin-3-yl)amino)pyridin-3-yl)-N,N-dimethylbenzamide]
20 | 10 to 100 | 10 to 100 | 10 to 100 | COc1ccc(C(=O)Nc2cncc(Nc3ccc(-c4ccc(C(=O)N(C)C)cc4)cn3)c2)cc1 [Example 142, 4-(6-((5-(4-methoxybenzamido)pyridin-3-yl)amino)pyridin-3-yl)-N,N-dimethylbenzamide]
21 | 1 to 10 | 1 to 10 | 10 to 100 | O=C1CCCN1c1ccc(-c2ccc(Nc3cnc4c(c3)N(C(=O)C3CC3)CCO4)nc2)cc1 [Example 150, 1-(4-(6-((1-(cyclopropanecarbonyl)-2,3-dihydro-1H-pyrido[2,3-b][1,4]oxazin-7-yl)amino)pyridin-3-yl)phenyl)pyrrolidin-2-one]
22 | 1 to 10 | 1 to 10 | 10 to 100 | COC(=O)N1CCOc2ncc(Nc3ccc(-c4ccc(N5CCCC5=O)cc4)cn3)cc21 [Example 151, methyl 7-((5-(4-(2-oxopyrrolidin-1-yl)phenyl)pyridin-2-yl)amino)-2,3-dihydro-1H-pyrido[2,3-b][1,4]oxazine-1-carboxylate]
23 | 1 to 10 | 1 to 10 | 10 to 100 | CC(C)(C)C(=O)N1CCOc2ncc(Nc3ccc(-c4ccc(N5CCCC5=O)cc4)cn3)cc21 [Example 155, 1-(4-(6-((1-pivaloyl-2,3-dihydro-1H-pyrido[2,3-b][1,4]oxazin-7-yl)amino)pyridin-3-yl)phenyl)pyrrolidin-2-one]
